Measured values published in publication PMC9494209 (RSC Advances, 2022).

Tests used:
SARS-CoV-2 M^pro = SARS-CoV-2 M^pro (Severe acute respiratory syndrome coronavirus 2, UniProt P0DTD1); experiment: biochemical; format: biochemical; details: ± SE, triplicate readings; for IC50: IC50 against SARS-CoV-2 M^pro
SARS-CoV-2 = format: cell-based; details: for SI (selectivity index): IC50 Vero cell cytotoxicity divided by EC50 of the antiviral assay; for EC50: read-out: Antiviral assay (qPCR) EC50, Vero E6 cells, five concentrations, ± SE

Row | Structure (SMILES) | IC50 (SARS-CoV-2 M^pro) [µM] | SI (selectivity index) (SARS-CoV-2) | EC50 (SARS-CoV-2) [µM] | IC50 against SARS-CoV-2 M^pro (SARS-CoV-2 M^pro) | Antiviral assay (qPCR) Inhibition % (SARS-CoV-2; 10 µM) [%]
1 | O=C(Nc1ccccc1F)c1cc2c(=O)n3ccccc3nc2n1Cc1ccccc1 [Compound 21, 1-Benzyl-N-(2-fluorophenyl)-4-oxo-1,4-dihydropyrido[1,2-a]pyrrolo[2,3-d]pyrimidine-2-carboxamide] | 25.4 ± 2.4 | 3544 | – | – | –
2 | Cn1c(C(=O)Nc2ccc(Cl)cc2)cc2c(=O)n3ccccc3nc21 [Compound 22, N-(4-Chlorophenyl)-1-methyl-4-oxo-1,4-dihydropyrido[1,2-a]pyrrolo[2,3-d]pyrimidine-2-carboxamide] | 236 ± 4.29 | 1766 | 0.109 ± 0.0111 | – | –
3 | CCc1ccc(NC(=O)c2cc3c(=O)n4ccccc4nc3n2C)cc1 [Compound 24, N-(4-Ethylphenyl)-1-methyl-4-oxo-1,4-dihydropyrido[1,2-a]pyrrolo[2,3-d]pyrimidine-2-carboxamide] | 82.2 ± 15 | 283.3 | – | – | –
4 | CC(=O)c1cccc(NC(=O)c2cc3c(=O)n4ccccc4nc3n2C)c1 [Compound 25, N-(3-Acetylphenyl)-1-methyl-4-oxo-1,4-dihydropyrido[1,2-a]pyrrolo[2,3-d]pyrimidine-2-carboxamide] | 5.42 | 1135 | – | low micromolar concentrations | –
5 | Cc1cccn2c(=O)c3cc(C(=O)Nc4ccc(N(C)C)cc4)n(C)c3nc12 [Compound 26, N-(4-(Dimethylamino)phenyl)-1,9-dimethyl-4-oxo-1,4-dihydropyrido[1,2-a]pyrrolo[2,3-d]-pyrimidine-2-carboxamide] | 407.5 ± 3.44 | 2323 | – | – | 94.05
6 | Cc1ccc(NC(=O)c2cc3c(=O)n4cccc(C)c4nc3n2C)cc1Cl [Compound 27, N-(3-Chloro-4-methylphenyl)-1,9-dimethyl-4-oxo-1,4-dihydropyrido[1,2-a]pyrrolo[2,3-d]-pyrimidine-2-carboxamide] | 165 ± 16.7 | 622.2 | – | – | –
7 | Cc1cc(NC(=O)c2cc3c(=O)n4cccc(C)c4nc3n2C)ccc1Br [Compound 28, N-(4-Bromo-3-methylphenyl)-1,9-dimethyl-4-oxo-1,4-dihydropyrido[1,2-a]pyrrolo[2,3-d]-pyrimidine-2-carboxamide] | 46 ± 8.62 | 1278 | – | – | –
8 | Cn1c(C(=O)Nc2ccc3c(c2)OCCO3)cc2c(=O)n3ccccc3nc21 [Compound 29, N-(2,3-Dihydrobenzo[b][1,4]dioxin-6-yl)-1-methyl-4-oxo-1,4-dihydropyrido[1,2-a]pyrrolo-[2,3-d]pyrimidine-2-carboxamide] | 3.22 ± 2.83 | 2909 | 0.0519 ± 0.00512 | low micromolar concentrations | –
9 | CCC(CC)COC(=O)[C@H](C)N[P@](=O)(OC[C@H]1O[C@@](C#N)(c2ccc3c(N)ncnn23)[C@H](O)[C@@H]1O)Oc1ccccc1 [Remdesivir, reference compound] | – | 7195 | – | – | –
